Calls of active or inactive are those of the source.
Legend:
[1] = target: T1, Ubiquitin-conjugating enzyme E2 N (Homo sapiens, UniProt P61088); format: functional
T1 sequence (P61088 whole entry): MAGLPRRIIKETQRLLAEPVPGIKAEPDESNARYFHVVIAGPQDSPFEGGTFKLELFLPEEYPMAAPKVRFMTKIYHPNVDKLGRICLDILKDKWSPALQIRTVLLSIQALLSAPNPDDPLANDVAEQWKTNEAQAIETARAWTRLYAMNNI

Caspase-3 = target: T2, Caspase-3 (Homo sapiens, UniProt P42574); format: functional;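 also: Dose-response selectivity test against caspase-3 for candidate inhibitors of sentrin-specific proteases (SENPs)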
T2 sequence (P42574 whole entry): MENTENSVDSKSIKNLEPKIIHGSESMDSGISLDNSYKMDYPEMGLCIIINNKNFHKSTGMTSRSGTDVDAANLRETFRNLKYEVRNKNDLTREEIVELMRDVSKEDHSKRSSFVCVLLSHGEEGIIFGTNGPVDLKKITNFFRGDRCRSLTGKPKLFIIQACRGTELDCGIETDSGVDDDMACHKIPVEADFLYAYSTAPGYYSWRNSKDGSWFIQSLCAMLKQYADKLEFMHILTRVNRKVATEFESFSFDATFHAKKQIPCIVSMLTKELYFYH

[2] = target: T3, Histone-lysine N-methyltransferase NSD2 (Homo sapiens, UniProt O96028); format: biochemical
T3 sequence (O96028 whole entry): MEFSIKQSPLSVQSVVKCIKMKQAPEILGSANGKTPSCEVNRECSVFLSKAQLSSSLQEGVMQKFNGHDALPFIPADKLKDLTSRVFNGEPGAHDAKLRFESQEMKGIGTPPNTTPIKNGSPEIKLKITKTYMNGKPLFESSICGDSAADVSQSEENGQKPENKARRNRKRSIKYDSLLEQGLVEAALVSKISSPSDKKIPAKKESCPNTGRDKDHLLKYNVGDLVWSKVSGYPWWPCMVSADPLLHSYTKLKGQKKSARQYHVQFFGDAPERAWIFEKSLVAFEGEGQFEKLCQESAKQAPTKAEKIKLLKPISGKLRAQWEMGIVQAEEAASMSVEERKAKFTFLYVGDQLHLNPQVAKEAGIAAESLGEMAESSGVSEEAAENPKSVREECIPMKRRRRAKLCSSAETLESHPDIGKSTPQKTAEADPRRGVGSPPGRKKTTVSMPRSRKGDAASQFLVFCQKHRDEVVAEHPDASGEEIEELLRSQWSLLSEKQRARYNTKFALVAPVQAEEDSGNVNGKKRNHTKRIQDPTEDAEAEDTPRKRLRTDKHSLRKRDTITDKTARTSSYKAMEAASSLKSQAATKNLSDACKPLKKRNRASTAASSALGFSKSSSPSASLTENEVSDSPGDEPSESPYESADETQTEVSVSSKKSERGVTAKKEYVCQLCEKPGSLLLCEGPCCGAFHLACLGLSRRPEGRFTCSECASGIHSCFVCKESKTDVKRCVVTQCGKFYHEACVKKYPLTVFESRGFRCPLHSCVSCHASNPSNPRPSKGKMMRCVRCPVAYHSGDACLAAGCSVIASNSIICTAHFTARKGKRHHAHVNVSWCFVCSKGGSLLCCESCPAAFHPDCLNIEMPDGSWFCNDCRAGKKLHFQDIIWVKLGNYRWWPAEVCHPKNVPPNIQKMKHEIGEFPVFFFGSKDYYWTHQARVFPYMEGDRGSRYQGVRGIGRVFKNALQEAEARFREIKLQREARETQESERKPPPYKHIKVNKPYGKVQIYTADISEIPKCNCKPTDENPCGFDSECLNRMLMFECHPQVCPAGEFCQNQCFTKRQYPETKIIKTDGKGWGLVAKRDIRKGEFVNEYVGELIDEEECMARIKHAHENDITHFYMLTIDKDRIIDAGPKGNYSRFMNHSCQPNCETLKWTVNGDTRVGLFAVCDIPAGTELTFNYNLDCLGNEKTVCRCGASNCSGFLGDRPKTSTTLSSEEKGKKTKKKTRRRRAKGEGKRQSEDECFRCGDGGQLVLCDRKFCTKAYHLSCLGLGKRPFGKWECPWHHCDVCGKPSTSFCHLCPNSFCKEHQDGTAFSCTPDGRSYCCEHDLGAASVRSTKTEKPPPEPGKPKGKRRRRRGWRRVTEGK

[3] = target: Proto-oncogene tyrosine-protein kinase receptor Ret (Homo sapiens, UniProt P07949); format: functional;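 also: measured within a kinome-wide profiling panel, RET as the panel member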
[4] = target: Serine/threonine-protein kinase D3 (Homo sapiens, UniProt O94806); format: functional;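 also: determined within a kinase panel screen, with PRKCN as the panel member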
[5] = target: Leukocyte tyrosine kinase receptor (Homo sapiens, UniProt P29376); experiment: Navigating the Kinome. Panel member name: LTK; format: functional
[6] = target: Serine/threonine-protein kinase PAK 4 (Homo sapiens, UniProt O96013); format: functional;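 also: value obtained within a kinome profiling panel in which PAK4 was one of the panel members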
[7] = target: Tyrosine-protein kinase JAK2 (Homo sapiens, UniProt O60674); format: functional;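 also: JAK2 tested as one member of a kinase panel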
[8] = target: Calcium/calmodulin-dependent protein kinase type II subunit alpha (Homo sapiens, UniProt Q9UQM7); experiment: Navigating the Kinome. Panel member name: CAMK2A; format: functional
[9] = target: Tyrosine-protein kinase JAK3 (Homo sapiens, UniProt P52333); format: functional
[10] = target: Dual specificity protein kinase CLK4 (Homo sapiens, UniProt Q9HAZ1); format: functional
[11] = target: Serine/threonine-protein kinase pim-1 (Homo sapiens, UniProt P11309); format: functional
[12] = target: Glycogen synthase kinase-3 beta (Homo sapiens, UniProt P49841); format: functional;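 also: value comes from a broad kinome profiling panel, with GSK3B as the panel member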
[13] = target: Tyrosine-protein kinase Lck (Homo sapiens, UniProt P06239); format: functional;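 also: lck was assayed as one member of a kinase panel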
Aurora kinase A = Aurora kinase A (Homo sapiens, UniProt O14965); format: functional;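 also: value from the Navigating the Kinome kinase panel profiling, panel entry STK6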
[14] = target: Dual specificity tyrosine-phosphorylation-regulated kinase 1B (Homo sapiens, UniProt Q9Y463); experiment: Navigating the Kinome. Panel member name: DYRK1B; format: functional
[15] = target: Vascular endothelial growth factor receptor 2 (Homo sapiens, UniProt P35968); format: functional
Activated CDC42 kinase 1 = Activated CDC42 kinase 1 (Homo sapiens, UniProt Q07912); experiment: Navigating the Kinome. Panel member name: ACK1; format: functional
[16] = target: Cyclin-dependent kinase 7 (Homo sapiens, UniProt P50613); format: functional;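 also: value comes from a kinome-wide kinase profiling panel in which CDK7 is one member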
[17] = alpha-synuclein stem-loop translation blockers – luminescence, H4 neuroglioblastoma cells, dose confirmation, confirmation (AID 2454); format: functional, cell-based;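 also: H4 neuroglioblastoma cells carrying an alpha-synuclein 5'UTR luciferase reporter; potency for inhibition of the luciferase signal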

Chain of Activated CDC42 kinase 1 (Q07912 whole entry): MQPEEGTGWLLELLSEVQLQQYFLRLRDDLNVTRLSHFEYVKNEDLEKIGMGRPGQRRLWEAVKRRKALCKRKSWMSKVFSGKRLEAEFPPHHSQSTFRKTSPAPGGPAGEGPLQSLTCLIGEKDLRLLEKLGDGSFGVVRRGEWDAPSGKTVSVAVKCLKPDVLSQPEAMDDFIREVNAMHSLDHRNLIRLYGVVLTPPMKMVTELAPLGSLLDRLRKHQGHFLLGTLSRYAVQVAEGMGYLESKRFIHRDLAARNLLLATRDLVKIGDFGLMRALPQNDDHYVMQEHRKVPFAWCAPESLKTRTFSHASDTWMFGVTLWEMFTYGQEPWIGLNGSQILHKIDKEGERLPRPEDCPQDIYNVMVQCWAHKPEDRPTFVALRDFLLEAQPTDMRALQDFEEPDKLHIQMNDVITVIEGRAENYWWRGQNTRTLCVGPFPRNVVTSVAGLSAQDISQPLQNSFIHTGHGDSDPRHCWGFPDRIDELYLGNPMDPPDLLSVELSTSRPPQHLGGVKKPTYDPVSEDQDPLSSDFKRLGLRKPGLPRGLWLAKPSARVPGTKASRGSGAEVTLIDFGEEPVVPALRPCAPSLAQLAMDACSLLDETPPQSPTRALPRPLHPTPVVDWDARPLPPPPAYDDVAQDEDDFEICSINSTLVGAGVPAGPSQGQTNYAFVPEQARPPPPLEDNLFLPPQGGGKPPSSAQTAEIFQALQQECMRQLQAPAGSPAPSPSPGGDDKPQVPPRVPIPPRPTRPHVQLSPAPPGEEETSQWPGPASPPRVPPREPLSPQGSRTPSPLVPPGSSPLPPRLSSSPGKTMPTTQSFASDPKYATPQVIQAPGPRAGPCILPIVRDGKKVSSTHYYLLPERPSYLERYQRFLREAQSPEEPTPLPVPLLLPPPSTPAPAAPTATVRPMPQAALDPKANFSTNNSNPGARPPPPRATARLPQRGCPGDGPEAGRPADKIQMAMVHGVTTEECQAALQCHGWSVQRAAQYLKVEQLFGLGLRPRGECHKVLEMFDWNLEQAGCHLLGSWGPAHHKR
Chain of Vascular endothelial growth factor receptor 2 (P35968 whole entry): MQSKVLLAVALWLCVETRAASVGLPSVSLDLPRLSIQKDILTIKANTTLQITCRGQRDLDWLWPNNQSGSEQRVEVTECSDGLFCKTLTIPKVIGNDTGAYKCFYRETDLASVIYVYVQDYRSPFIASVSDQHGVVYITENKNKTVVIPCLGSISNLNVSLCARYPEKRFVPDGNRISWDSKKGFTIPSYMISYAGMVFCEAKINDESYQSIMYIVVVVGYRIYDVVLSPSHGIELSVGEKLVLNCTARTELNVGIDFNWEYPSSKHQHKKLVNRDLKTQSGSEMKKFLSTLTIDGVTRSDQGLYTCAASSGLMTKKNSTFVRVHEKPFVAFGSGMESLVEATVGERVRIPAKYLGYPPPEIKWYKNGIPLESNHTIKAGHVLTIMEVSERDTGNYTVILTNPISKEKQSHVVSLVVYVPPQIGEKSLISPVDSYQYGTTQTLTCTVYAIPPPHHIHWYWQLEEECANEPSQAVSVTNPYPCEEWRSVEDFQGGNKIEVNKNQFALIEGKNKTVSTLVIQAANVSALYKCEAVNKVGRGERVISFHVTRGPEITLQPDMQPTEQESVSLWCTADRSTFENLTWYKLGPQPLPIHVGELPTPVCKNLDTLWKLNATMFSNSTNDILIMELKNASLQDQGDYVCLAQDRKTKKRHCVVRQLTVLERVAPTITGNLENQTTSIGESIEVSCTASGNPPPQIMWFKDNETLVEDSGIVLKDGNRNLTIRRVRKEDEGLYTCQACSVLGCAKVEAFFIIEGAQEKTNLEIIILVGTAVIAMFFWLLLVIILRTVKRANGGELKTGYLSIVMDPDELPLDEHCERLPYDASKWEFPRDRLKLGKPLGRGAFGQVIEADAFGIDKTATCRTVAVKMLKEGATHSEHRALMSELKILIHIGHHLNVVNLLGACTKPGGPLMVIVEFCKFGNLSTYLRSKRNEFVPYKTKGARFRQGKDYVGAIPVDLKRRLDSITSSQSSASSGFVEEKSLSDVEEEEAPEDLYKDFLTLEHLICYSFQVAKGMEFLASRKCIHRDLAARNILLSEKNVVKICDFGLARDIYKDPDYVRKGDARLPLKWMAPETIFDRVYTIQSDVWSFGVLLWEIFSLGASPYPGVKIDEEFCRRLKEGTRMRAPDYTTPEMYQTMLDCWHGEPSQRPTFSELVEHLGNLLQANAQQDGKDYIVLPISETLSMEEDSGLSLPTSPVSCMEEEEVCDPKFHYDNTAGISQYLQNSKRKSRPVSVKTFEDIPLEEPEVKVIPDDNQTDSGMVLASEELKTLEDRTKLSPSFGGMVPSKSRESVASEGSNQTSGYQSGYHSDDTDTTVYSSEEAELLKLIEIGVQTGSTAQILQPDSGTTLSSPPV
Chain of Serine/threonine-protein kinase PAK 4 (O96013 whole entry): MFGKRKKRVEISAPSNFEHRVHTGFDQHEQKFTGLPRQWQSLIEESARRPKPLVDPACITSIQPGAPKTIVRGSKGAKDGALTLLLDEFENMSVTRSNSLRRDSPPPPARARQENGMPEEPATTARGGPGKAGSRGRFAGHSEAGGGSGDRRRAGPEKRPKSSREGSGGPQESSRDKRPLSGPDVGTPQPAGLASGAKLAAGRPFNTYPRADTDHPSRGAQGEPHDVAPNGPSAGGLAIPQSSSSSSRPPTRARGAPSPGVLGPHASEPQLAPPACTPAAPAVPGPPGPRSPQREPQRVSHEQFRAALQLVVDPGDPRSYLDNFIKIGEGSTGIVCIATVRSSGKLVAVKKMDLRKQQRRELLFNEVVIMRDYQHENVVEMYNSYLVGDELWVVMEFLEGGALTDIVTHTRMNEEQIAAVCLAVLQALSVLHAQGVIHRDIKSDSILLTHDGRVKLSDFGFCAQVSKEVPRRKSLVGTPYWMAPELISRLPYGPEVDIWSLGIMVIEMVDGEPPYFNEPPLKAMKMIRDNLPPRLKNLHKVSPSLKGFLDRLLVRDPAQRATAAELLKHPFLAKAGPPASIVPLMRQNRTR
Chain of Proto-oncogene tyrosine-protein kinase receptor Ret (P07949 whole entry): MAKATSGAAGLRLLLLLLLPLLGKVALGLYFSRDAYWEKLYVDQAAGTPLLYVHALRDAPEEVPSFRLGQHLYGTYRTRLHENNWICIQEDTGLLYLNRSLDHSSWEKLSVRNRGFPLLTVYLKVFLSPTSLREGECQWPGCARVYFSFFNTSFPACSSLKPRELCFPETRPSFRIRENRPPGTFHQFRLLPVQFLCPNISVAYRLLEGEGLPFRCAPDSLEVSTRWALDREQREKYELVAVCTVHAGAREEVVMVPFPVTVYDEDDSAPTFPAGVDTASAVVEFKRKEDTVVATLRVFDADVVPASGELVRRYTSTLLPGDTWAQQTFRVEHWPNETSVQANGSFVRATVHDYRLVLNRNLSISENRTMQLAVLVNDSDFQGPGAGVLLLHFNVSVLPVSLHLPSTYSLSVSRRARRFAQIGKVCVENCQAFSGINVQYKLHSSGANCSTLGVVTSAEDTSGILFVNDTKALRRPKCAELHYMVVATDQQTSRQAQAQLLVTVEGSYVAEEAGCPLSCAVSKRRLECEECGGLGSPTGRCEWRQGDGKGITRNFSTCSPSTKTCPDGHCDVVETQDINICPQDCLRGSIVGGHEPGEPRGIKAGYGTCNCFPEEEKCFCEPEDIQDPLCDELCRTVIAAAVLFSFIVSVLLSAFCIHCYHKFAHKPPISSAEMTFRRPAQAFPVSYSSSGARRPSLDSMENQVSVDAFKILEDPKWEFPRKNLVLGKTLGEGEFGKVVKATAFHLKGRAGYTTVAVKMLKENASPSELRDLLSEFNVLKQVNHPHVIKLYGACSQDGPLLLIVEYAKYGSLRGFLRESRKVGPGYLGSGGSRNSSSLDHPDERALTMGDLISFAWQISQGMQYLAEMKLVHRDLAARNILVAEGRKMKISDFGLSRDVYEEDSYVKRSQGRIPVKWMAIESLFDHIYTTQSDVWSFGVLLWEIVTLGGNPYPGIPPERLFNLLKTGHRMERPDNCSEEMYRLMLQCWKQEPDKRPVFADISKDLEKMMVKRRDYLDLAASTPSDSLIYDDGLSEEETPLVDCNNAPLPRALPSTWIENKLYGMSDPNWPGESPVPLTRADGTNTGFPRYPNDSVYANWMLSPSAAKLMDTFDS
Chain of Serine/threonine-protein kinase pim-1 (P11309 whole entry): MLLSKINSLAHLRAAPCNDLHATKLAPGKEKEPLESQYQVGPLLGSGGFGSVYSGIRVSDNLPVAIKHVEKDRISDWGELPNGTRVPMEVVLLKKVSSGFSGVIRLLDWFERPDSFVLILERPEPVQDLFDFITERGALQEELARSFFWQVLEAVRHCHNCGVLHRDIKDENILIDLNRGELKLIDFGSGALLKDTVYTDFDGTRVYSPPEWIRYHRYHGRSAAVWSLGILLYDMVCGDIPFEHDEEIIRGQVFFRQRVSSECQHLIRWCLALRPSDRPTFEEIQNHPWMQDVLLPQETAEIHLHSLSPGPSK
Chain of Dual specificity tyrosine-phosphorylation-regulated kinase 1B (Q9Y463 whole entry): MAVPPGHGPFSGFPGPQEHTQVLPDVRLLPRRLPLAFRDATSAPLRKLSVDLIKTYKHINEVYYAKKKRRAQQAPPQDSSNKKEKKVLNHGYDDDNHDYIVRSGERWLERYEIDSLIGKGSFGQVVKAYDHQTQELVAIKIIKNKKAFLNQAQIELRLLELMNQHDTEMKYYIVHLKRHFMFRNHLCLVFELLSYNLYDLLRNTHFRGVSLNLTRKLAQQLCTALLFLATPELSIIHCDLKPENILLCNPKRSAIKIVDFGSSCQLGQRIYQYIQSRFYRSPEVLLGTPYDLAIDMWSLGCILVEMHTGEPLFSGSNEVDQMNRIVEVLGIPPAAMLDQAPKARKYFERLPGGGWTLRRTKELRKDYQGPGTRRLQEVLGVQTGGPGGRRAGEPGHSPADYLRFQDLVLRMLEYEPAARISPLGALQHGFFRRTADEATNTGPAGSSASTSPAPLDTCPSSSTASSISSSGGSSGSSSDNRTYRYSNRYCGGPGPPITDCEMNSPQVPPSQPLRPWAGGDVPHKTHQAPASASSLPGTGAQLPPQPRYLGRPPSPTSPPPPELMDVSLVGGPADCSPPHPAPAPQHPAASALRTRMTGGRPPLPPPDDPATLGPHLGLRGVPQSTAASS

SMILES: CNC[C@H](Cc1ccccc1)NC[C@@H](Cc1cccc2ccccc12)NCCc1ccc(C)cc1
- IC50 [1]: 11.5 µM (active)

SMILES: Nc1nnc2c(n1)CCCC2
- IC50 (Caspase-3): 14.3 µM (active)
- AC50 [2]: 16.5 µM (active)

SMILES: O=C(Cc1ccccc1Cl)NC1(O)C(=O)c2ccccc2C1=O
- AC50 [2]: 8.16 µM (active)

SMILES: O=C(N/N=C/c1c(O)ccc2ccccc12)c1[nH]ncc1Br
- IC50 (Caspase-3): 27.7 µM (active)

SMILES: Nc1c(-c2ccc(NC(=O)Nc3cccc(C(F)(F)F)c3)cc2)cnc2c(-c3ccc4c(c3)OCO4)cnn12
- Ki [3]: 0.00398 µM (active)
- Ki [4]: > 3.98 µM (inactive)
- Ki [5]: > 2.51 µM (inactive)
- Ki [6]: > 5.01 µM (inactive)
- Ki [7]: > 2.51 µM (inactive)
- Ki [8]: > 3.98 µM (inactive)
- Ki [9]: > 5.01 µM (inactive)
- Ki [10]: > 2.51 µM (inactive)
- Ki [11]: > 6.31 µM (inactive)
- Ki [12]: > 3.98 µM (inactive)
- Ki [13]: 0.0316 µM (active)
- Ki (Aurora kinase A): > 1.58 µM (inactive)
- Ki [14]: > 2.51 µM (inactive)
- Ki [15]: 0.0126 µM (active)
- Ki (Activated CDC42 kinase 1): 0.2 µM (active)
- Ki [16]: > 3.98 µM (inactive)

SMILES: O=C(Nc1cc(-c2c[nH]c3ncccc23)cc(Cl)n1)c1ccccc1
- Ki [3]: > 3.16 µM (inactive)
- Ki [4]: > 3.98 µM (inactive)
- Ki [5]: > 2.51 µM (inactive)
- Ki [6]: > 5.01 µM (inactive)
- Ki [7]: > 2.51 µM (inactive)
- Ki [8]: > 7.94 µM (inactive)
- Ki [9]: > 5.01 µM (inactive)
- Ki [10]: 0.0251 µM (active)
- Ki [11]: > 3.98 µM (inactive)
- Ki [12]: > 3.98 µM (inactive)
- Ki [13]: > 6.31 µM (inactive)
- Ki (Aurora kinase A): > 1.58 µM (inactive)
- Ki [14]: 0.316 µM (active)
- Ki [15]: > 2.51 µM (inactive)
- Ki (Activated CDC42 kinase 1): > 3.98 µM (inactive)
- Ki [16]: > 3.98 µM (inactive)

SMILES: CCN1C(=Cc2sc3ccccc3[n+]2C)C=Cc2cccc(C)c21
- EC50 [17]: > 12 µM (not active)
